Test results reported in PubChem BioAssay AID1963864 (Molecular Pharmacology Branch, DTP, NCI, 2024).

Test system: KRAS PDC multicell spheroid viability
Experiment: Anticancer human tumor 521955-158-R6-J3-PDC patient-derived pancreatic carcinoma cell line growth inhibition [KRAS2]
Details: for IC50: curve of first compound; for viability, T/C: stronger effect = lower value
Outline: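 Combination screen of spheroid viability in tumor-cell co-cultures with endothelial (HUVEC) and mesenchymal stem cell stroma. Each agent was tested in half-log dilutions, topping at clinical Cmax or at 10 microM without a known Cmax.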

[1] = second compound 0.1 µM, first compound 0.0316 µM
[2] = second compound 0.1 µM, first compound 0.1 µM
[3] = second compound 0.1 µM, first compound 0.316 µM
[4] = second compound 0.1 µM, first compound 1 µM
[5] = second compound 0.1 µM, first compound 3.16 µM
[6] = second compound 0.1 µM, first compound 10 µM
[7] = second compound 0.316 µM, first compound 0.0316 µM
[8] = second compound 0.316 µM, first compound 0.1 µM
[9] = second compound 0.316 µM, first compound 0.316 µM
[10] = second compound 0.316 µM, first compound 1 µM
[11] = second compound 0.316 µM, first compound 3.16 µM
[12] = second compound 0.316 µM, first compound 10 µM
[13] = second compound 1 µM, first compound 0.0316 µM
[14] = second compound 1 µM, first compound 0.1 µM
[15] = second compound 1 µM, first compound 0.316 µM
[16] = second compound 1 µM, first compound 1 µM
[17] = second compound 1 µM, first compound 3.16 µM
[18] = second compound 1 µM, first compound 10 µM
[19] = second compound 3.16 µM, first compound 0.0316 µM
[20] = second compound 3.16 µM, first compound 0.1 µM
[21] = second compound 3.16 µM, first compound 0.316 µM
[22] = second compound 3.16 µM, first compound 1 µM
[23] = second compound 3.16 µM, first compound 3.16 µM
[24] = second compound 3.16 µM, first compound 10 µM
[25] = second compound 10 µM, first compound 0.0316 µM
[26] = second compound 10 µM, first compound 0.1 µM
[27] = second compound 10 µM, first compound 0.316 µM
[28] = second compound 10 µM, first compound 1 µM
[29] = second compound 10 µM, first compound 3.16 µM
[30] = second compound 10 µM, first compound 10 µM
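Further: drug exposure lasted seven days.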
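Wherever viability, T/C is given: 100% = DMSO vehicle wells and lower means fewer viable cells.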

In the case of `COc1cc(Nc2ncc3c(n2)-c2ccc(Cl)cc2C(c2c(F)cccc2OC)=NC3)ccc1C(=O)O` + CNCc1ccccc1-c1csc(C(C)Nc2nc(C)nc3cc(OC)c(OC)cc23)c1, the IC50 (second compound 0.1 µM) is reported as > 10000 nM, the IC50 (second compound 0.316 µM) is reported as > 10000 nM and the IC50 (second compound 1 µM) is reported as > 10000 nM. For the same compound, the IC50 (second compound 3.16 µM) was < 31.6 nM, the IC50 (second compound 10 µM) was < 31.6 nM and the viability, T/C [1] was 95.5%. For the same compound, the viability, T/C [2] was 89.9%, the viability, T/C [3] was 94.6% and the viability, T/C [4] was 101%. The viability, T/C [5] was 113%, the viability, T/C [6] was 89.4% and the viability, T/C [7] was 104%. The viability, T/C [8] was 84.6%, the viability, T/C [9] was 90.9% and the viability, T/C [10] was 88.7%. It also gave a viability, T/C [11] of 90.7%, a viability, T/C [12] of 104% and a viability, T/C [13] of 93.6%. For the same compound, the viability, T/C [14] was 73.3%, the viability, T/C [15] was 86.7% and the viability, T/C [16] was 78.2%. The viability, T/C [17] was 87.3%, the viability, T/C [18] was 88.6% and the viability, T/C [19] was 1.45%. The viability, T/C [20] was 0.8%, the viability, T/C [21] was 0.53% and the viability, T/C [22] was 1.47%. The viability, T/C [23] was 2.38%, the viability, T/C [24] was 2.86% and the viability, T/C [25] was 0.82%. For the same compound, the viability, T/C [26] was 1.21%, the viability, T/C [27] was 0.68% and the viability, T/C [28] was 0.35%. The viability, T/C [29] was 0.3% and the viability, T/C [30] was 0.59%.

In the case of `COc1cc2nccc(Oc3ccc(NC(=O)C4(C(=O)Nc5ccc(F)cc5)CC4)cc3)c2cc1OC` + CNCc1ccccc1-c1csc(C(C)Nc2nc(C)nc3cc(OC)c(OC)cc23)c1, the IC50 (second compound 0.1 µM) is reported as > 10000 nM, the IC50 (second compound 0.316 µM) is reported as > 10000 nM and the IC50 (second compound 1 µM) is reported as 2160 nM. For the same compound, the IC50 (second compound 3.16 µM) was < 31.6 nM, the IC50 (second compound 10 µM) was < 31.6 nM and the viability, T/C [1] was 91.1%. For the same compound, the viability, T/C [2] was 102%, the viability, T/C [3] was 101% and the viability, T/C [4] was 108%. The viability, T/C [5] was 125%, the viability, T/C [6] was 133% and the viability, T/C [7] was 94.3%. It also gave a viability, T/C [8] of 92.9%, a viability, T/C [9] of 90.2% and a viability, T/C [10] of 87.7%. The viability, T/C [11] was 119%, the viability, T/C [12] was 109% and the viability, T/C [13] was 80.1%. For the same compound, the viability, T/C [14] was 75.1%, the viability, T/C [15] was 79.3% and the viability, T/C [16] was 83.9%. For the same compound, the viability, T/C [17] was 32.2%, the viability, T/C [18] was 38.4% and the viability, T/C [19] was 0.94%. The viability, T/C [20] was 0.35%, the viability, T/C [21] was 0.42% and the viability, T/C [22] was 0.24%. For the same compound, the viability, T/C [23] was 0.24%, the viability, T/C [24] was 0.24% and the viability, T/C [25] was 13.4%. The viability, T/C [26] was 0.23%, the viability, T/C [27] was 0.2% and the viability, T/C [28] was 0.21%. It also gave a viability, T/C [29] of 0.2% and a viability, T/C [30] of 0.28%.
